Test results from patent publication US12448369B2 (Edgewise Therapeutics, Inc., priority 2023, dated 2025).

How the values were obtained:
[1] = system: Rabbit Psoas myofibrils (skeletal myosin ATPase); experiment: Myofibril ATPase assay, rabbit psoas (skeletal) myofibrils; format: biochemical
Procedure, shortened: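 Readout: A340 decline from NADH oxidation, PK/LDH-coupled to ADP release; kinetic reads over 75 min. Buffer: pCa (PIPES, CaCl2, EGTA), pH 7.0. Linear-regression slopes vs vehicle, 4PL fit; reported as concentration giving 75% (Y75) or 125% (Y125) of vehicle activity.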

[2] = system: Porcine atria myofibrils (atrial myosin ATPase); experiment: Myofibril ATPase assay, porcine atria myofibrils; format: biochemical
Procedure, shortened: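 Coupled PK-LDH readout, NADH loss at 340 nm, kinetic 75 min. Porcine atria myofibrils, pCa buffer (PIPES/CaCl2/EGTA, pH 7.0). Slopes (mAU/min) normalized to vehicle = 100%, 4-parameter fit; Y75 or Y125 reported.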

[3] = molecular target: T1, Porcine ventricle myofibrils (ventricular myosin ATPase) (Sus scrofa, UniProt P79293); experiment: Myofibril ATPase assay, porcine ventricle myofibrils; format: biochemical, porcine (Yucatan minipigs)
T1 construct: Myofibrils from porcine cardiac muscle was isolated from the left ventricle of Yucatan minipigs; tissue Exemplar Genetics; host or cells: left ventricle of Yucatan minipigs, myofibrils prepared in house
T1 sequence (P79293 whole entry): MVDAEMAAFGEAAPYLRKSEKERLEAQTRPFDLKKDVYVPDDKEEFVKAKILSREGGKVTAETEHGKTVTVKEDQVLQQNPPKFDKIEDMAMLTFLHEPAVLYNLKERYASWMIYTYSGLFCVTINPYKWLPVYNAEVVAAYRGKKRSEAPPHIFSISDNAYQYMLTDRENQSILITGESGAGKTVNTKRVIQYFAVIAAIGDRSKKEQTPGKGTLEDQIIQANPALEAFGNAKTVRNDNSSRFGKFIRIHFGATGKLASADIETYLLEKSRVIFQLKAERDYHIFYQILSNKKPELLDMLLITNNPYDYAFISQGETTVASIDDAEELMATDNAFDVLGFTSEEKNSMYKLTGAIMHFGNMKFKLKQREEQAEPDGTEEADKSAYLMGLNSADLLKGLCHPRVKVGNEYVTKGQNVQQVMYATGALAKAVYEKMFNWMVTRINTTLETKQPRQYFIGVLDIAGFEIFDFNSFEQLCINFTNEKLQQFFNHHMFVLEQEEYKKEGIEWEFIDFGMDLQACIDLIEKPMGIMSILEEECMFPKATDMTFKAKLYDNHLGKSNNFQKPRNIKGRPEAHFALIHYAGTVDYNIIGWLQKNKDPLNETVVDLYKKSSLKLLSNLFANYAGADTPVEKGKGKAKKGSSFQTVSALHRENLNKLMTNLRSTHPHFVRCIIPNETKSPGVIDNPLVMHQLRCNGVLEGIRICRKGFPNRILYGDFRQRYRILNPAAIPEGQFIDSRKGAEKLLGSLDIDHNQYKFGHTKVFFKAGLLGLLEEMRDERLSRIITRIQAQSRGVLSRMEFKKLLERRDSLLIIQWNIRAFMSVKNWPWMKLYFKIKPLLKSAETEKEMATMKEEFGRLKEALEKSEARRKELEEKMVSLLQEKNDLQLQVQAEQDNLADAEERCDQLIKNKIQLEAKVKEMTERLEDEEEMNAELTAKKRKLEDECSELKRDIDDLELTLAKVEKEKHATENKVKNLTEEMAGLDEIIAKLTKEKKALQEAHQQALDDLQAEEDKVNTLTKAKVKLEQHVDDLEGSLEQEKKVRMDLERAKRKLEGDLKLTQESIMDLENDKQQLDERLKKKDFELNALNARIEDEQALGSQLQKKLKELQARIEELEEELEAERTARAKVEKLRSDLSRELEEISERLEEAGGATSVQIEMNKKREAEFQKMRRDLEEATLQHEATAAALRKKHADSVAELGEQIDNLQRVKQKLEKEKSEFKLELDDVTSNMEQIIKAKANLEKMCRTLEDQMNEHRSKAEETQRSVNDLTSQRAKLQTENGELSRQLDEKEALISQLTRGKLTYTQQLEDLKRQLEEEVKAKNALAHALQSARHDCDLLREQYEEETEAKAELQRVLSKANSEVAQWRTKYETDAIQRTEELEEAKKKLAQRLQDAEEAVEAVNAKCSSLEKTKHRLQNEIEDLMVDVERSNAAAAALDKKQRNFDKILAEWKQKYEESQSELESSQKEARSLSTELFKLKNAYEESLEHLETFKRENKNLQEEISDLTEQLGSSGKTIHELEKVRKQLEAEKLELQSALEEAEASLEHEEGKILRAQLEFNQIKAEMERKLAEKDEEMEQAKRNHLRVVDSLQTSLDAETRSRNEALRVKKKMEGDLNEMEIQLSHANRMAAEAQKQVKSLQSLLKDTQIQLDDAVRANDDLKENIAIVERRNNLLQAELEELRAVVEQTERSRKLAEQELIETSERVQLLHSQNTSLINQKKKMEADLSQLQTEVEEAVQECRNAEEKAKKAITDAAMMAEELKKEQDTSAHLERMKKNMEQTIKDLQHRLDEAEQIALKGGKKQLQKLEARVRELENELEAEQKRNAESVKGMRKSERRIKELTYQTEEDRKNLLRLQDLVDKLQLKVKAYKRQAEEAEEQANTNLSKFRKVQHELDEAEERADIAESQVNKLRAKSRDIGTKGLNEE
Procedure, shortened: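 Test compounds acted on myofibrils isolated from the left ventricle of Yucatan minipigs. ADP formation was coupled via pyruvate kinase/lactate dehydrogenase to NADH oxidation, monitored kinetically at 340 nm over 75 min. Rates relative to vehicle were fitted with a 4-parameter logistic model, reported as Y75 (25% inhibition) or Y125 (activation) concentrations.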

[4] = ‡ Y125 value, not a Y75 value (125% activity relative to no compound), rabbit psoas myofibrils
[5] = Y75 value (no ‡ mark), porcine atria myofibrils
[6] = Y75 value (no ‡ mark), porcine ventricle myofibrils
[7] = Y75 value (no ‡ mark), rabbit psoas myofibrils
[8] = rabbit psoas myofibrils, Y75 value
[9] = porcine atria myofibrils, Y75 value (75% activity relative to no compound)
[10] = porcine ventricle myofibrils, Y75 value

| SMILES | Atrial EC25 [2, 5] [µM] | Ventricular EC25 [3, 6] [µM] | Skeletal EC25 [1, 7] [µM] | Skeletal EC25 [1, 8] [µM] | Atrial EC25 [2, 9] [µM] | Ventricular EC25 [3, 10] [µM] | further results |
| --- | --- | --- | --- | --- | --- | --- | --- |
| C[C@@H](NC(=O)C1(c2cc3cc(F)ccc3[nH]c2=O)CC1)c1cc(C#N)ccn1 (single isomer, unassigned) [compound 2536] | 30.59 | 100.00 |  |  |  |  | Skeletal EC25 [1, 4]: 77.37‡ μM |
| Cc1c(CC(=O)NC(C)c2cnc(C#N)cn2)c(=O)[nH]c2ccc(F)c(F)c12 (stereo in doubt) [compound 1145, (S)—N-(1-(5-cyanopyrazin-2-yl)ethyl)-2-(5,6-difluoro-4-methyl-2-oxo-1,2-dihydroquinolin-3-yl)acetamide] | 0.06 | 0.07 | 0.03 |  |  |  |  |
| Cc1nccc2[nH]c(=O)c([C@@H](C)C(=O)N[C@@H](C)c3ccc(C#N)cc3F)c(C)c12 (single isomer, unassigned) [compound 195] |  |  |  | 0.11 | 0.30 | 2.97 |  |
| C[C@H](NC(=O)C1(c2cc3cc(F)ccc3[nH]c2=O)CC1)c1cc(C#N)ccn1 (single isomer, unassigned) [compound 2537] | 100.00 |  |  |  |  |  | Skeletal EC25 [1, 4]: 100.00‡ μM; Ventricular EC25 ([3]; ‡ Y125 value, not a Y75 value (125% activity relative to no compound), porcine ventricle myofibrils): 100.00‡ μM |
| Cc1c([C@H](C)C(=O)N[C@H](C)c2ncc(C#N)cc2F)c(=O)[nH]c2ccc(F)c(F)c12 (single isomer, unassigned) [compound 2601] | 0.04 | 0.07 | 0.04 |  |  |  |  |
| Cc1c(CC(=O)N[C@@H](C)c2ccc(F)cc2F)c(=O)[nH]c2ccc(F)c(C3CC3)c12 [compound 101] | 0.04 | 0.11 | 0.23 |  |  |  |  |
| COc1cccc([C@H](C)NC(=O)Cc2c(C)c3c(C)nccc3[nH]c2=O)n1 (single isomer, unassigned) [compound 310] |  |  |  | 100.00 | 100.00 | 100.00 |  |
| Cc1nc(C#N)cnc1[C@@H](C)NC(=O)Cc1c(C)c2c(F)c(F)ccc2[nH]c1=O [compound 1139] | 0.14 | 0.14 | 0.03 |  |  |  |  |
| Cc1c(C2(C(=O)N[C@H](C)c3ncc(C#N)cn3)CC2)c(=O)[nH]c2cccc(C#N)c12 (single isomer, unassigned) [compound 2543] | 0.73 | 4.00 | 0.83 |  |  |  |  |
| N#Cc1cnc2c(c1)OC[C@H]2NC(=O)Cc1cc2c(F)c(F)ccc2[nH]c1=O (single isomer, unassigned) [compound 13] | 0.32 | 0.09 | 0.05 |  |  |  |  |
| Cc1c(C(F)(F)C(=O)N[C@@H](C)c2ncc(C#N)cc2F)c(=O)[nH]c2cccc(F)c12 (single isomer, unassigned) [compound 2533] | 0.13 | 0.13 | 0.06 |  |  |  |  |
| Cc1c(CC(=O)N[C@H](C)c2ncc(C#N)cn2)c(=O)[nH]c2ccc(F)c(C3CC3)c12 (single isomer, unassigned) [compound 2059] |  | 56.97 | 1.09 |  |  |  | Atrial EC25 ([2]; ‡ Y125 value, not a Y75 value (125% activity relative to no compound), porcine atria myofibrils): 100.00‡ μM |
| Cc1nccc2[nH]c(=O)c([C@H](C)C(=O)N[C@H](C)c3ccc(C#N)cc3F)c(C)c12 (single isomer, unassigned) [compound 184] |  |  |  | 100.00 | 100.00 | 100.00 |  |
| Cc1c(CC(=O)N[C@@H](C)c2ccc(C#N)cn2)c(=O)[nH]c2ccc(F)c(C#N)c12 [compound 50] | 0.05 | 0.23 | 0.02 |  |  |  |  |
| Cc1c(CC(=O)N[C@H](C)c2ncc(C#N)cn2)c(=O)[nH]c2ccc(C#N)cc12 (single isomer, unassigned) [compound 2027] | 1.48 | 100.00 | 41.80 |  |  |  |  |
| C[C@H](NC(=O)Cc1c(C(F)(F)F)c2ncccc2[nH]c1=O)c1ccc(F)cc1F [compound 417] |  |  |  | 0.17 | 9.70 | 9.50 |  |
| C[C@H](NC(=O)[C@H](C)c1cc2c(F)c(F)ccc2[nH]c1=O)c1ccc(F)cc1F (single isomer, unassigned) [compound 111] | 0.10 | 100.00 | 0.11 |  |  |  |  |

| SMILES | Atrial EC25 [2, 5] [µM] | Ventricular EC25 [3, 6] [µM] | Skeletal EC25 [1, 7] [µM] | Skeletal EC25 [1, 8] [µM] | Atrial EC25 [2, 9] [µM] | Ventricular EC25 [3, 10] [µM] | further results |
| --- | --- | --- | --- | --- | --- | --- | --- |
| Cc1c(C(F)(F)C(=O)N[C@@H](C)c2ncc(F)cc2F)c(=O)[nH]c2ccc(F)cc12 (single isomer, unassigned) [compound 4820] | 0.12 | 0.61 | 0.11 |  |  |  |  |
| C[C@@H](NC(=O)C1(c2cc3c(F)c(F)ccc3[nH]c2=O)CC1)c1nccc(C#N)n1 (single isomer, unassigned) [compound 2505] | 100.00 | 100.00 | 100.00 |  |  |  |  |
| Cc1c([C@H](C)C(=O)N[C@@H](C)c2ncc(C#N)cc2F)c(=O)[nH]c2ccc(F)c(F)c12 (single isomer, unassigned) [compound 2603] | 0.06 | 0.21 | 0.03 |  |  |  |  |
| C[C@H](NC(=O)Cc1cc2cc(F)c(F)cc2[nH]c1=O)c1ccc(C#N)cn1 [compound 1115] | 27.67 | 69.62 | 11.40 |  |  |  |  |
| COc1nccc2[nH]c(=O)c([C@H](C)C(=O)N[C@@H](C)c3ccc(F)cc3F)c(C(F)(F)F)c12 (single isomer, unassigned) [compound 424] |  |  |  | 4.49 | 1.91 | 17.24 |  |
| Cc1nccc2[nH]c(=O)c(CC(=O)N[C@@H](C)c3ccc(O)nc3)c(C)c12 (single isomer, unassigned) [compound 296] |  |  |  | 100.00 | 88.12 | 100.00 |  |
| C[C@H](NC(=O)C(F)(F)c1cc2c(F)c(F)ccc2[nH]c1=O)c1cc(C#N)ccn1 (single isomer, unassigned) [compound 2558] | 31.66 | 81.97 | 100.00 |  |  |  |  |
| Cc1c(CC(=O)N[C@H]2COc3cc(C#N)cc(F)c32)c(=O)[nH]c2ccc(F)c(C#N)c12 (single isomer, unassigned) [compound 60] | 0.05 | 0.62 | 0.27 |  |  |  |  |
| Cc1c(CC(=O)N[C@@H](CO)c2ncc(F)cc2F)c(=O)[nH]c2ccnc(C(F)(F)F)c12 [compound 264] |  |  |  | 0.57 | 0.29 | 2.73 |  |
| Cc1nccc2[nH]c(=O)c(CC(=O)N[C@@H](C)c3ccc(C#N)cc3F)c(C#N)c12 [compound 154] |  |  |  | 0.04 | 0.18 | 0.54 |  |
| Cc1c(CC(=O)N[C@@H](C)c2ncc(C#N)cc2F)c(=O)[nH]c2cc(F)c(F)cc12 [compound 1105] | 100.00 | 4.47 | 1.36 |  |  |  |  |
| Cc1c(CC(=O)N[C@@H]2c3c(F)cc(F)cc3OC2(C)C)c(=O)[nH]c2ccnc(C#N)c12 (single isomer, unassigned) [compound 188] |  |  |  | 26.50 | 2.43 | 39.56 |  |
| Cc1c(CC(=O)N[C@@H](C)c2ccc(C#N)cc2F)c(=O)[nH]c2cnnc(C#N)c12 [compound 172] |  |  |  | 0.04 | 0.10 | 3.78 |  |
| Cc1c(CC(=O)N[C@H](C)c2ncc(C#N)cc2F)c(=O)[nH]c2ccnc(C#N)c12 (single isomer, unassigned) [compound 284] |  |  |  | 0.49 | 4.56 | 10.63 |  |
| COc1ccccc1[C@@H](C)NC(=O)Cc1c(C)c2c(C)nccc2[nH]c1=O (single isomer, unassigned) [compound 318] |  |  |  | 27.68 | 100.00 | 100.00 |  |
| Cc1nccc2[nH]c(=O)c(CC(=O)N[C@@H](CO)c3ncc(F)cc3F)c(C)c12 (single isomer, unassigned) [compound 308] |  |  |  | 1.82 | 1.07 | 12.24 |  |
| C[C@H](NC(=O)Cc1cc2c(F)c(F)ccc2[nH]c1=O)c1cc(C#N)c(F)s1 (single isomer, unassigned) [compound 4003] |  |  |  |  |  |  | Skeletal EC25 ([1]; Y75 value: concentration required to reduce myosin ATP-ase activity by 25%, Rabbit Psoas Prep pCa 25 GEOM_MEAN): 1.06 µM; Atrial EC25 ([2]; Y75 value: concentration required to reduce myosin ATP-ase activity by 25%, Porcine Atria Prep pCa 25 GEOM_MEAN): 100.00 µM; Ventricular EC25 ([3]; Y75 value: concentration required to reduce myosin ATP-ase activity by 25%, Porcine Ventricle Prep pCa 25 GEOM_MEAN): 100.00 µM |
